Test results: PMC12147761 (Journal of medicinal chemistry, 2025)

How the values were obtained:
[1] = test system: VCaP prostate cancer cells; assay: Cell proliferation assay (CellTiter-Glo), VCaP; format: cell-based, human; conditions: for IC50: Homo sapiens, VCaP, 120 h, cell growth inhibition, 5 days, CellTiter-Glo
Experimental: (§1) The kinase inhibitory activities of the compounds against CDK12 and CDK13 were preliminarily evaluated using the ADP-Glo kinase assay. Cell growth inhibition was determined in VCaP prostate cancer cells, which were characterized as being sensitive to CDK12/13 inhibition.[14]
Cells were seeded in 96-well plates and incubated at 37 °C and 5% CO2. After overnight incubation, serial dilutions of tested compounds were added to the plate. The assay was tested with Cell Titer-Glo (Promega) after 5 days. The luminescence signal was detected by the Infinite M1000 Pro plate reader (Tecan), and the IC50 values were calculated by GraphPad Prism 10.

CDK13/CycK = target: T1, CDK13/CycK (Homo sapiens, UniProt Q14004); assay: ADP-Glo kinase assay, CDK13; format: biochemical; conditions: means from three independent experiments
T1 construct: ICE Bioscience Inc. (assay service)
Experimental: as §1

CDK12/CycK = target: T2, CDK12/CycK (Homo sapiens, UniProt Q9NYV4); assay: ADP-Glo kinase assay, CDK12; format: biochemical; conditions: for IC50: ADP-Glo kinase assay, means from three independent experiments
T2 construct: ICE Bioscience Inc. (assay service)
Experimental: as §1
All the kinase activity were performed using an ADP-Glo kinase assay by ICE Bioscience Inc. (Beijing, China). Kinome selectivity profiles (KINOMEscan profiling) and Kd detection were performed by Eurofins DiscoveryX Corporation (San Diego, CA, USA).

468 kinases = assay: KINOMEscan kinase selectivity profiling; format: binding; conditions: 1 μM; 403 non-mutant kinases
Experimental: Figure S1. The results of selectivity profiling study of compound 14h. (A) Chemical structure and the K d values of compound 14h against CDK12/13, and the KinomeScan kinase selectivity proﬁles of compound 14h at 1 μM against 468 kinases; (B) KinomeScan profiling results of compound 14h against CDK family members.
(1 picture or pasted object on this page, not shown here)

[2] = Pharmacokinetics study in mice; format: in vivo, ICR mice; conditions: both sexes, ICR, mouse, plasma
[3] = Permeability and efflux ratio in Caco-2 cells; format: in vitro ADME; conditions: human
VCaP cells [4] = assay: Washout experiment, cell growth; format: cell-based, human; conditions: VCaP cells treated 6 h, compound removed, 5 days in compound-free media
Experimental: (§2) The previously reported reversible inhibitor 10 was included for comparison. VCaP cells were treated with the compounds for 6 h, after which the compounds were removed, and the cells were cultured in compound-free media for 5 days.

VCaP CRPC xenograft = assay: In vivo efficacy, VCaP CRPC mouse model; design: species or system mice; conditions: YJZ5118 i.p., q.d., uprosertib p.o., 5x/week, 27 days, compared to vehicle
Experimental: All the animal experiments were performed under an approved animal protocol (Protocol ID: PRO00010006, PI, Arul Chinnaiyan) by the Institutional Animal Care & Use Committee of the University of Michigan. Six- to eight-week-old NSG (Jackson Laboratory) or CB17SCID female (Charles River Laboratory) mice were in a regular SPF housing room prior to cell injection. Briefly, 5 ×10^6 cells of VCaP CRPC were injected […] of NSG or CB17SCID mice, respectively. After tumor size reached approximately 200–400 mm^3, animals were subjected to drug treatment. […] Vehicle consisted of 20% PEG400, 6% Cremophor EL, and 74% PBS solution. Tumors were collected at the end of the experiment for Western blot analysis.

CDK15/CycY = target: T3, CDK15/CycY (Homo sapiens, UniProt Q96Q40); assay: CDK family panel, ADP-Glo; format: biochemical
T3 construct: ICE Bioscience Inc. (assay service)

[5] = test system: phosphorylation of RNA polymerase II at Ser2; assay: Washout experiment, RNA polymerase II Ser2 phosphorylation (immunoblot); format: cell-based, human; conditions: VCaP cells; YJZ5118 100 nM
Experimental: as §2
Generally, after incubation with the compounds for the indicated time, the tested cells were washed by cold PBS buffer (Gibco) and lysed with RIPA buffer (ThermoFisher Scientific) supplemented with cOmplete protease inhibitor cocktail tablets (Sigma-Aldrich). The cell lysate was treated with ultrasonic for 20s, following a centrifugation of 14000 rpm at 4°C for 10 min. The protein concentration was measured by BCA protein assay (DC Protein Assay, BIO-RAD). An equal amount of protein was loaded to 4–12% Bis-Tris gels and underwent SDS-PAGE electrophoresis at 120 V for 90 min. The proteins were transferred to a nitrocellulose (NC) membrane (Thermo Scientific) and the membranes were blocked in 5% milk buffer at room temperature for 1h, followed by incubating with primary antibody at the recommended dilution at 4°C for overnight. The membranes were washed by PBST for three times and incubated with anti-rabbit or anti-mouse HRP-conjugated secondary antibody for 1h at room temperature, after which the membranes were imaged by Odyssey CLx Imager (LiCOR Biosciences).

CDK12 = test system: CDK12; design: method as in PMID 30067358; conditions: LANCE Ultra assay; read-out: reported IC50 CDK12; cited from earlier work
CDK13 = test system: CDK13; design: method as in PMID 30067358; conditions: LANCE Ultra assay; read-out: reported IC50 CDK13; cited from earlier work
VCaP cells [6] = assay: Cell apoptosis assay by flow cytometry; format: cell-based, human; conditions: YJZ5118 at 100 nM
Experimental: Cells were seeded in six-well plates and incubated for 24 h at 37 °C and 5% CO2. Cells were then treated with the indicated concentrations of the tested compounds for 48 h. The treated cells then were collected, centrifuged and washed twice by cold PBS. […] Cell samples were analyzed with flow cytometry (SH800S cell sorter, Sony Biotechnology).

T2 sequence (Q9NYV4 whole entry): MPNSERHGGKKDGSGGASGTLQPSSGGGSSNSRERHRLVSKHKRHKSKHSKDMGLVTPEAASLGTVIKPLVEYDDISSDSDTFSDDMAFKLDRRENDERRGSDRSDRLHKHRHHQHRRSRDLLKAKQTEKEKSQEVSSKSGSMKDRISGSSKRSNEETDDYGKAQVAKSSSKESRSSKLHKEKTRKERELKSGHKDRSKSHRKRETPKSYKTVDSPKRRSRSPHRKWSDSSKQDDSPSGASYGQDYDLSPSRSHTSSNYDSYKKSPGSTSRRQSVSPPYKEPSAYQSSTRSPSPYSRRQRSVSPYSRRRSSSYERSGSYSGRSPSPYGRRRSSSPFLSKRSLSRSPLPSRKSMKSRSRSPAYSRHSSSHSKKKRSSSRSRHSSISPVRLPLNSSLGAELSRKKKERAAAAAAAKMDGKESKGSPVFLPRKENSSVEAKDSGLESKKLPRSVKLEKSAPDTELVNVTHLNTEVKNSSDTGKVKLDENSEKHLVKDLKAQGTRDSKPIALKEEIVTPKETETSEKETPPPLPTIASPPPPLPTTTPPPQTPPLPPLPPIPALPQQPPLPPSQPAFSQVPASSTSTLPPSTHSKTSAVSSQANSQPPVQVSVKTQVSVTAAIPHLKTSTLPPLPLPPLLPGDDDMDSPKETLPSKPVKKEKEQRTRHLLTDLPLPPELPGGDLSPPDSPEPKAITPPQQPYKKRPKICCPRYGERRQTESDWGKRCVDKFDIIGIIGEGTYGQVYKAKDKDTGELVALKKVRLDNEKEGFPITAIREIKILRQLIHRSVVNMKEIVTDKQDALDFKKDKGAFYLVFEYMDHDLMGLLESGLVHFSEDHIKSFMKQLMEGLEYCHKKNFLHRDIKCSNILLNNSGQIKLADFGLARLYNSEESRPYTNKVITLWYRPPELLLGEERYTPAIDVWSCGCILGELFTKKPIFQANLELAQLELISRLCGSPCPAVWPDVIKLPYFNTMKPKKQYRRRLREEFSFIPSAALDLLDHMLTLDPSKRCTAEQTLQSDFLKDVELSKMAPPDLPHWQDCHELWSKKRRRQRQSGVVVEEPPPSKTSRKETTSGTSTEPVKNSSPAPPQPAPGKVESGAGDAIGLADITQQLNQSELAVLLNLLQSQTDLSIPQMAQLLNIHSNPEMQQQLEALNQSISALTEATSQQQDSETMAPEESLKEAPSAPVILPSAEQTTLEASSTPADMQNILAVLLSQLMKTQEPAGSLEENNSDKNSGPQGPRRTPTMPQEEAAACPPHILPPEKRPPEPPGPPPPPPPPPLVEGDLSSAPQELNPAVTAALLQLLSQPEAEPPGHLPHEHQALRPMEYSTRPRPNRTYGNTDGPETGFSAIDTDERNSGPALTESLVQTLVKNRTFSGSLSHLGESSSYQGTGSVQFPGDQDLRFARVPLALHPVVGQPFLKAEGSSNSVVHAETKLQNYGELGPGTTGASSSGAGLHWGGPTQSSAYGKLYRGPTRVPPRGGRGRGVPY
T2 sequence (O75909 whole entry partner): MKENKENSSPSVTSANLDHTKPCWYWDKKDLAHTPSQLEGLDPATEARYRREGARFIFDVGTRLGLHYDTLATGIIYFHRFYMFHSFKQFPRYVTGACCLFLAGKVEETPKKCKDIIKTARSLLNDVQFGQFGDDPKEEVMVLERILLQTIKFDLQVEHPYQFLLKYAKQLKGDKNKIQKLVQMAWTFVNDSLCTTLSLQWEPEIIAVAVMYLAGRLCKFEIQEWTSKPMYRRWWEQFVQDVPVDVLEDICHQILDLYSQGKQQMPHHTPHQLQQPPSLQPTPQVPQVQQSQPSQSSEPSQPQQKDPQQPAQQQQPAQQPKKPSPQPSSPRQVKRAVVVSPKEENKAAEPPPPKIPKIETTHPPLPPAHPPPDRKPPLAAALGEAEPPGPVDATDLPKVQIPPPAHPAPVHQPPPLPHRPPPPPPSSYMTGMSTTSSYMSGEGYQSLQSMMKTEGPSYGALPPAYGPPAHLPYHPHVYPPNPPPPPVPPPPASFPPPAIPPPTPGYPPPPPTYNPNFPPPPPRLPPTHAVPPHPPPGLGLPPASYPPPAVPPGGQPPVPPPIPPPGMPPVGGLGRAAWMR
T1 sequence (Q14004 whole entry): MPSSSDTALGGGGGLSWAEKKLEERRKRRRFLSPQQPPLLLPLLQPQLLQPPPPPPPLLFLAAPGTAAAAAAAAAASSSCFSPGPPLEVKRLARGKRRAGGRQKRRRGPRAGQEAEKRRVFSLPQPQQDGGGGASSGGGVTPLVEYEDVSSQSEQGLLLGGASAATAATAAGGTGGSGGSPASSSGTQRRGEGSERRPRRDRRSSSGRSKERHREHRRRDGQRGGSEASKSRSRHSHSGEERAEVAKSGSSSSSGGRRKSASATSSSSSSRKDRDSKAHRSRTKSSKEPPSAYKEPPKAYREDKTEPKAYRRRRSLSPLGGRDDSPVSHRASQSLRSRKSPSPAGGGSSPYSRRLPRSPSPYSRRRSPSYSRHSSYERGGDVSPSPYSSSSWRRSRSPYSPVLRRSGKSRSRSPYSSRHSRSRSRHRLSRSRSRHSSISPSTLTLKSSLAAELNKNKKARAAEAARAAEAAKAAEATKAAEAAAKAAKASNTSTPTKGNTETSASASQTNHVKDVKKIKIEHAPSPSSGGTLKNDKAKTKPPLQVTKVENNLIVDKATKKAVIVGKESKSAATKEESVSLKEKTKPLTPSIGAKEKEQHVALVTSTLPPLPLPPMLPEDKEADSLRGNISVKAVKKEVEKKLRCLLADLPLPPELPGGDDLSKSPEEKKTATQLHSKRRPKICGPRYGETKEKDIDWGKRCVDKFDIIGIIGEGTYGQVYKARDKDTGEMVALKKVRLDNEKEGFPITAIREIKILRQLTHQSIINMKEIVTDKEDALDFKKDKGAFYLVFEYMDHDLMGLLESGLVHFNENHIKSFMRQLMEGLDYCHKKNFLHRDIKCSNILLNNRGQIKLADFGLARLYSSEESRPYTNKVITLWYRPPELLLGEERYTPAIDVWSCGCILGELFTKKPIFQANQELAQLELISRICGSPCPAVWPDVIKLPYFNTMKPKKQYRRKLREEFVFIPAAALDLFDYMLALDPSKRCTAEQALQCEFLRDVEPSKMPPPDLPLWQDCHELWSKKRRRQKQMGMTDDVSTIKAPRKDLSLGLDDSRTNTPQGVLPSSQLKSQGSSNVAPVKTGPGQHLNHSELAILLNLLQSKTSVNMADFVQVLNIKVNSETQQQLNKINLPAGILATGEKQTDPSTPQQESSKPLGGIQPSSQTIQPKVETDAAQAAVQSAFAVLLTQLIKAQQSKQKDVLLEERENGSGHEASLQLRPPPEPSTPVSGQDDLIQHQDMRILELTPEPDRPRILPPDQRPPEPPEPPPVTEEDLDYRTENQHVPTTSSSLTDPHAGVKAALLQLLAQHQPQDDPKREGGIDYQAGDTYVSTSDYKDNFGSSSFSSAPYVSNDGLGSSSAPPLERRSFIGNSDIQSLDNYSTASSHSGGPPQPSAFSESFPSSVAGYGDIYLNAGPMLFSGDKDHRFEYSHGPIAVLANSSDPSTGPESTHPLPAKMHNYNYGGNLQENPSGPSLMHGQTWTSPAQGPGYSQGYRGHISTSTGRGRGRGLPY
T1 sequence (O75909 whole entry partner): as the sequence (O75909 whole entry partner) above
T3 sequence (Q96Q40 whole entry, species assumed): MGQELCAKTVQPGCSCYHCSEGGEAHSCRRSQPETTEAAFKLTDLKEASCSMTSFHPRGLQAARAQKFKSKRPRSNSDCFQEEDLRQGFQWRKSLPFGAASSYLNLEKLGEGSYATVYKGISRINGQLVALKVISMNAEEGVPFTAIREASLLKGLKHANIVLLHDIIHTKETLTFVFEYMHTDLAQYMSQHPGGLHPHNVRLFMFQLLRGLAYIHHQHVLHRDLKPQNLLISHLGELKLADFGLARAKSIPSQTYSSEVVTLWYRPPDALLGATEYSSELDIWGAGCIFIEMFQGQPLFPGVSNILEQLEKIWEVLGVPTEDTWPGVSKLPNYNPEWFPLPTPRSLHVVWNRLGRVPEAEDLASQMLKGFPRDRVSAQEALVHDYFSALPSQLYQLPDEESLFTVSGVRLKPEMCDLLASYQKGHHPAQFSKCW
T3 sequence (Q8ND76 whole entry partner, species assumed): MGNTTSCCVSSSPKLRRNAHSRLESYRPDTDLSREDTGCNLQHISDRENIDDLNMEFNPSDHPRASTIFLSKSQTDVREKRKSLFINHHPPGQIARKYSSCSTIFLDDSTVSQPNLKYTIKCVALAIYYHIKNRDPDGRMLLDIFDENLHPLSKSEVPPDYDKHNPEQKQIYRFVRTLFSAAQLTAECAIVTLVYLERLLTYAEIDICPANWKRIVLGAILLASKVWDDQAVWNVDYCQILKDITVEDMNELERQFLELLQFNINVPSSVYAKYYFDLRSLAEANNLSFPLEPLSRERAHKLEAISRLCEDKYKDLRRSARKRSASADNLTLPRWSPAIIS

| Structure (SMILES) | IC50 [1] [nM] | IC50 (CDK13/CycK) [nM] | IC50 (CDK12/CycK) [nM] | further results |
| --- | --- | --- | --- | --- |
| C=CC(=O)Nc1cc(N(C(=O)NCc2ccccc2)[C@H]2CC[C@H](Nc3ccc(C#N)cn3)CC2)ccc1N1CCN(C)[C@@H](C)C1 [Compound 14h, N-(5-(3-benzyl-1-((1r,4S)-4-((5-cyanopyridin-2-yl)amino)cyclohexyl)ureido)-2-((S)-3,4-dimethylpiperazin-1-yl)phenyl)acrylamide] | 4.3 | 21.7 | 33.1 | Number of Hits, S (1) (468 kinases): 0; Number of Hits, S (10) (468 kinases): 2; Number of Hits, S (35) (468 kinases): 6; Selectivity Score S (10) (468 kinases): 0.005; Selectivity Score S (35) (468 kinases): 0.015; AUC(0-t) ([2]; iv, i.v. 2 mg/kg): 309 ng·h/mL; Cmax ([2]; iv, i.v. 2 mg/kg): 658 ng/mL; Tmax ([2]; iv, i.v. 2 mg/kg): 4.8 min; clearance ([2]; iv, i.v. 2 mg/kg): 108 mL/min/kg; half-life ([2]; iv, i.v. 2 mg/kg): 21.6 min; bioavailability ([2]; po, 10 mg/kg, p.o. 10 mg/kg, read-out: F (oral bioavailability)): 42.2%; AUC(0-t) ([2]; po, p.o. 10 mg/kg): 652 ng·h/mL; Cmax ([2]; po, p.o. 10 mg/kg): 499 ng/mL; Tmax ([2]; po, p.o. 10 mg/kg): 30 min; half-life ([2]; po, p.o. 10 mg/kg): 37.2 min |
| C=CC(=O)Nc1cccc(N(C(=O)NCc2ccccc2)[C@H]2CC[C@H](Nc3ccc(C#N)cn3)CC2)c1 [Compound 14b, N-(3-(3-benzyl-1-((1r,4r)-4-((5-cyanopyridin-2-yl)amino)cyclohexyl)ureido)phenyl)acrylamide] | 96.2 | 99 | 506 | fold more potency than 14a in the growth inhibition assay against VCaP cells [1]: 3.4 fold; reduction in kinase inhibitory potency compared with 14a (CDK12/CycK; CDK12 and CDK13): 7- to 13 fold; Papp A→B [3]: 0.91 ×10⁻⁶ cm/s; Papp B→A [3]: 13.7 ×10⁻⁶ cm/s; efflux ratio [3]: 15 |
| Cn1cc(-n2cnc3c(NCc4nc5cc(Cl)c(Cl)cc5[nH]4)nc(N4CCOCC4)nc32)cn1 [Compound 10, SR-4835, reference compound] |  |  |  | cell growth inhibitory effect after washout (VCaP cells [4]): nearly completely lost following washout |
| Cn1ncc(Cl)c1-c1cc(C(=O)N[C@H](CN)Cc2ccc(F)c(F)c2)oc1Cl [Uprosertib, reference compound] |  |  |  | tumor growth (VCaP CRPC xenograft): significant reduction in tumor growth |
| C=CC(=O)Nc1cc(N(C(=O)NCc2ccccc2)[C@H]2CC[C@H](Nc3ccc(C#N)cn3)CC2)ccc1N1C[C@H]2C[C@@H]1CN2C [Compound 14g, N-(5-(3-benzyl-1-((1r,4R)-4-((5-cyanopyridin-2-yl)amino)cyclohexyl)ureido)-2-((1R,4R)-5-methyl-2,5-diazabicyclo[2.2.1]heptan-2-yl)phenyl)acrylamide] | 76.3 | 83.9 | 209 |  |
| C=CC(=O)Nc1cc(N(C(=O)NCc2ccccc2)[C@H]2CC[C@H](Nc3ccc(C#N)cn3)CC2)ccc1N1CCN(C)CC1 [Compound 14f, N-(5-(3-benzyl-1-((1r,4r)-4-((5-cyanopyridin-2-yl)amino)cyclohexyl)ureido)-2-(4-methylpiperazin-1-yl)phenyl)acrylamide] | 39.9 | 66.8 | 130 |  |
| C=CC(=O)Nc1cc(N(C(=O)NCc2ccccc2)[C@H]2CC[C@H](Nc3ccc(C#N)cn3)CC2)ccc1N1CCN(C(C)=O)CC1 [Compound 14i, N-(2-(4-acetylpiperazin-1-yl)-5-(3-benzyl-1-((1r,4r)-4-((5-cyanopyridin-2-yl)amino)cyclohexyl)ureido)phenyl)acrylamide] | 45.5 | 164 | 331 | fold weaker potency against the kinases compared to 14f (CDK12/CycK; CDK12 and CDK13): 2- to 3 fold |
| C=CC(=O)Nc1cc(N(C(=O)NCc2ccccc2)[C@H]2CC[C@H](Nc3ccc(C#N)cn3)CC2)ccc1-c1ccc(=O)n(C)c1 [Compound 14a, N-(5-(3-benzyl-1-((1r,4r)-4-((5-cyanopyridin-2-yl)amino)cyclohexyl)ureido)-2-(1-methyl-6-oxo-1,6-dihydropyridin-3-yl)phenyl)acrylamide] | 330 | 14.9 | 37.9 | antiproliferative potency in VCaP cells, fold more potent than lead compound 2 [1]: approximately 6 fold; Papp A→B [3]: 0.07 ×10⁻⁶ cm/s; Papp B→A [3]: 5.25 ×10⁻⁶ cm/s; efflux ratio [3]: 72.6 |
| C=CC(=O)Nc1cc(N(C(=O)NCc2ccccc2)[C@H]2CC[C@H](Nc3ccc(C#N)cn3)CC2)ccc1N1CCOCC1 [Compound 14j, N-(5-(3-benzyl-1-((1r,4r)-4-((5-cyanopyridin-2-yl)amino)cyclohexyl)ureido)-2-morpholinophenyl)acrylamide] | 59.9 | 12.8 | 55 |  |
| Cn1cc(-c2ccc(N(C(=O)NCc3ccccc3)[C@H]3CC[C@H](Nc4ccc(C#N)cn4)CC3)cc2)ccc1=O [Compound 2, reference compound] |  |  |  | IC50 (CDK15/CycY): 3020 nM; RNA polymerase II Ser2 phosphorylation after washout [5]: recovery of phosphorylation at 4 h after washout; IC50 (CDK12): 52 nM; IC50 (CDK13): 10 nM |
| CN(C)C/C=C/C(=O)Nc1ccc(C(=O)N2CCC[C@@H](Nc3ncc(Cl)c(-c4c[nH]c5ccccc45)n3)C2)cc1 [Compound 3, THZ531, reference compound] | 33.5 | 63.3 | 77.4 | apoptosis rate (VCaP cells [6]): 24.9% |
| C=CC(=O)Nc1cc(N(C(=O)NCc2ccccc2)[C@H]2CC[C@H](Nc3ccc(C#N)cn3)CC2)ccc1N1CCC(N(C)C)C1 (stereo partly drawn) [Compound 14e, N-(5-(3-benzyl-1-((1r,4r)-4-((5-cyanopyridin-2-yl)amino)cyclohexyl)ureido)-2-(3-(dimethylamino)pyrrolidin-1-yl)phenyl)acrylamide] | 57.6 | 177 | 568 |  |
| C=CC(=O)Nc1cc(N(C(=O)NCc2ccccc2)[C@H]2CC[C@H](Nc3ccc(C#N)cn3)CC2)ccc1N(C)CCN(C)C [Compound 14c, N-(5-(3-benzyl-1-((1r,4r)-4-((5-cyanopyridin-2-yl)amino)cyclohexyl)ureido)-2-((2-(dimethylamino)ethyl)(methyl)amino)phenyl)acrylamide] | 44.4 | 79.3 | 191 | antiproliferative potency in VCaP cells, fold more potent than lead compound 2 [1]: approximately 44 fold |
| C=CC(=O)Nc1cc(N(C(=O)NCc2ccccc2)[C@H]2CC[C@H](Nc3ccc(C#N)cn3)CC2)ccc1N1CC(N(C)C)C1 [Compound 14d, N-(5-(3-benzyl-1-((1r,4r)-4-((5-cyanopyridin-2-yl)amino)cyclohexyl)ureido)-2-(3-(dimethylamino)azetidin-1-yl)phenyl)acrylamide] | 133 | 73.7 | 151 |  |
